From the supplement of paper PMC11061612 come the findings set out here.

What all share (assay): combination Emax (second highest fraction inhibited in the dose matrix, 72 h); higher = more inhibition; extreme values may be limits of the assay
The test system of experiment [1] is 22RV1 (Prostate Carcinoma). The method, boiled down: (§1)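 Cell lines grown in DMEM/F12 or RPMI with 10% FBS were plated in 1536-well plates and held 24 hours at 37°C, 5% CO2 before 72 hours of exposure to two-drug dose matrices, with DMSO typically at 0.2%. CellTiter-Glo 2.0 luminescence gave viability, which was converted to inhibition. Vehicle wells were set to 0 and blank wells to 1. Combination Emax is the second-highest inhibition in the matrix, and Bliss excess is the observed combination effect minus the expected EA + EB − EA·EB, where EA and EB are the single-agent effects.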

The subject of experiment [2] is OACp4C (Esophageal Adenocarcinoma). The method in brief:
as §1

A further experiment has as its system KP-N-YN (Neuroblastoma). The method, boiled down:
as §1

For another experiment, the system named is COLO-792 (Melanoma). The method in brief:
as §1

The subject of a further experiment is RH-41 (Rhabdomyosarcoma). The method in brief:
as §1

Experiment [3] deals with JHH-2 (Hepatocellular Carcinoma). The method in brief:
as §1

Another experiment concerns IM-9 (Non-Cancerous). The method in brief:
as §1

Another experiment relates to EW-16 (Ewing's Sarcoma). The method in brief:
as §1

The subject of experiment [4] is GA-10 (Burkitt's Lymphoma). The method in brief:
as §1

The subject of experiment [5] is A253 (Head and Neck Carcinoma). The method in brief: as §1
The test system of experiment [6] is NCI-H441 (Lung Adenocarcinoma). The method, boiled down: as §1
The test system of experiment [7] is G-402 (Other Solid Carcinomas). The method, boiled down: as §1
The subject of experiment [8] is NCI-H716 (Colorectal Carcinoma). The method in brief: as §1
In experiment [9] the test system is GCT (Other Solid Carcinomas). The method in brief:
as §1

Another experiment concerns PEO1 (Ovarian Carcinoma). The method, boiled down:
as §1

Experiment [10] deals with huH-1 (Hepatocellular Carcinoma). The method in brief:
as §1

The test system of experiment [11] is LU-165 (Small Cell Lung Carcinoma). The method in brief:
as §1

In the next experiment the test system is EB2 (Burkitt's Lymphoma). The method in brief:
as §1

The subject of experiment [12] is DU-4475 (Breast Carcinoma). The method in brief: as §1
Experiment [13] has as its system Jurkat (T-Lymphoblastic Leukemia). The method, boiled down: as §1

For `CC1(C)CCC(CN2CCN(c3ccc(C(=O)NS(=O)(=O)c4ccc(NCC5CCOCC5)c([N+](=O)[O-])c4)c(Oc4cnc5[nH]ccc5c4)c3)CC2)=C(c2ccc(Cl)cc2)C1` [Venetoclax] + Cc1cc2ncnn2cc1Nc1ncc2c(n1)n(C1CCOCC1)c(=O)n2C [AZD7648] (first compound max 1 µM, 7x7, partner max 10 µM), the “combination Emax” value in experiment [1] is 0.456; in experiment [2] it was 0.338; in the experiment on KP-N-YN (Neuroblastoma), 0.542; with COLO-792 (Melanoma) it was 0.411; in the experiment on RH-41 (Rhabdomyosarcoma) it was 0.608; in [3] it was 0.506. Moreover, the “combination Emax” value turned out to be 0.655 in the experiment with IM-9 (Non-Cancerous); 0.193 in the experiment with EW-16 (Ewing's Sarcoma); 0.698 in experiment [4]; 0.212 in experiment [5]; 0.264 in experiment [6]; 0.501 in experiment [7]. Further, the “combination Emax” value in experiment [8] amounted to 0.203; in [9], 0.283; in the experiment on PEO1 (Ovarian Carcinoma), 0.163; in experiment [10], 0.162; in experiment [11], 0.196; with EB2 (Burkitt's Lymphoma), 0.756. Besides, the “combination Emax” value in experiment [12] stood at 0.23; in experiment [13], 0.303.

In the case of `CC1(C)CCC(CN2CCN(c3ccc(C(=O)NS(=O)(=O)c4ccc(NCC5CCOCC5)c([N+](=O)[O-])c4)c(Oc4cnc5[nH]ccc5c4)c3)CC2)=C(c2ccc(Cl)cc2)C1` [Venetoclax] + Cn1cnc2c(F)c(Nc3ccc(Br)cc3Cl)c(C(=O)NOCCO)cc21 [Selumetinib] (first compound max 1 µM, 7x7, partner max 3 µM), the “combination Emax” value in experiment [1] was determined as 0.368; in [2], 0.488; in the experiment with KP-N-YN (Neuroblastoma), 0.632; in the experiment on COLO-792 (Melanoma), 0.505; in the experiment on RH-41 (Rhabdomyosarcoma) it was 0.289; in experiment [3], 0.388. Besides, the “combination Emax” value in the experiment with IM-9 (Non-Cancerous) was determined as 0.901; with EW-16 (Ewing's Sarcoma), 0.127; in experiment [4], 0.207; in experiment [5], 0.185; in experiment [6] it was 0.255; in experiment [7], 0.2. For the same compound, the “combination Emax” value in experiment [8] came to 0.366; in experiment [9] it was 0.289; in the experiment on PEO1 (Ovarian Carcinoma), 0.19; in experiment [10] it was 0.114; in experiment [11], 0.142; in the experiment on EB2 (Burkitt's Lymphoma), 0.755. For the same compound, the “combination Emax” value in [12] came to 1; in experiment [13], 0.277.
